The target in this test is T1, CFTR (Homo sapiens, UniProt P13569, DEL508-508).
T1 construct: endogenous in cells; host or cells: primary human bronchial epithelial cells from CF subjects (F508del/MF-HBE), differentiated at air-liquid interface
The test can be described thus: HBE2 assay: Ussing chamber assay of CFTR-mediated short-circuit currents. Format: cell-based. The note with it: F508del/MF-HBE cells, 18-24 hours, 20% human serum; for Emax: read-out: HBE2 Max activity (%). The gist of the method:
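F508del/MF-HBE cultured >14 days at air-liquid interface, mounted in Ussing chambers; transepithelial short-circuit current recorded under voltage clamp (Vhold=0 mV) at 37 °C. CFTR-mediated ISC (μA/cm^2) taken as peak forskolin response relative to steady-state current after inhibition; corrector activity assessed this way.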

The mark [1] stands for this setting: 3 μM corrector, with 44 nM potentiator.
Where [2] appears, read: corrector at a range of concentrations with 44 nM potentiator.

Molecules are shown by their SMILES. Some results are limits rather than exact numbers.

T1 sequence (P13569 with tags, fused parts or gaps DEL508-508): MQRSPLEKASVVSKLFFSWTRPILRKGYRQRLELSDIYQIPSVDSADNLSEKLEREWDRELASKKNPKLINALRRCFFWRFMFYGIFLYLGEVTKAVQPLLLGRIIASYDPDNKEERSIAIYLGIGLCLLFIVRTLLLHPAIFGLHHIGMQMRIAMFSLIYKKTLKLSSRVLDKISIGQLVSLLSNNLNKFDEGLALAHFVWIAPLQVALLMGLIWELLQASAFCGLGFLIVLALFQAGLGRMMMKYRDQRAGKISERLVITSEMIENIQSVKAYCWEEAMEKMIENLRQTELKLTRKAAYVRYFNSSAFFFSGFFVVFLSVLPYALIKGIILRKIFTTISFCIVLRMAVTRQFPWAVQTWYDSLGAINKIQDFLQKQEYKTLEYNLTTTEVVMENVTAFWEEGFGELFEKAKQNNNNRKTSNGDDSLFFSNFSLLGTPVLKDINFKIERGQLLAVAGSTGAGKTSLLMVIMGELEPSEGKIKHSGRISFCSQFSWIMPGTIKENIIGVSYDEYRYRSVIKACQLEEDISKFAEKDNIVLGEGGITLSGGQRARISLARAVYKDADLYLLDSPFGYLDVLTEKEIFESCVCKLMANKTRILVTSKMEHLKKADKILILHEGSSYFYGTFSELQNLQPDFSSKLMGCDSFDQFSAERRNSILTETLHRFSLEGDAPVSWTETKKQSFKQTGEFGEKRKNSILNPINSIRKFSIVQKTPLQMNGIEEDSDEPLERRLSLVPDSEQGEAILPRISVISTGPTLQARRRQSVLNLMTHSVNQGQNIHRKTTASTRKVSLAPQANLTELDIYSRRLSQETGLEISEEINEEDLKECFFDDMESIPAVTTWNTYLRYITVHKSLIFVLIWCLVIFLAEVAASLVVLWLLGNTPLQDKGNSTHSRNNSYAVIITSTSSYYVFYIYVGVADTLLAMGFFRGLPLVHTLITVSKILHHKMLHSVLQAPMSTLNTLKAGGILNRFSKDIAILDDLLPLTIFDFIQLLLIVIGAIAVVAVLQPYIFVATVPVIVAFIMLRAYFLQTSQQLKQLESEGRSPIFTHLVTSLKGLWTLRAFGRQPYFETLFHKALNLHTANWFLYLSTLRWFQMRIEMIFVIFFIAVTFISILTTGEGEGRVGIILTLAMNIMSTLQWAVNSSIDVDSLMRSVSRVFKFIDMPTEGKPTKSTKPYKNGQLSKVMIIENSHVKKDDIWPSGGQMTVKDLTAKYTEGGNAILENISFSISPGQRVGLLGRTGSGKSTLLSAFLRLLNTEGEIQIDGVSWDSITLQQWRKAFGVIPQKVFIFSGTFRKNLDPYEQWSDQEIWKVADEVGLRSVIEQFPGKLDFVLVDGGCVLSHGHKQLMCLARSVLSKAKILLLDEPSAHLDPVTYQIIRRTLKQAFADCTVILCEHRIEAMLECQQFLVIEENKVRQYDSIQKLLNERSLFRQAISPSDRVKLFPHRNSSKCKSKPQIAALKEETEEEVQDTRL

As for `Cc1cccc(C)c1-c1cc2nc(n1)NS(=O)(=O)c1cccc(c1)C(=O)N(Cc1cncc(N(C)C3CC4(CC4)C3)n1)[C@H](CCC(C)(C)C)CO2` [Compound 1817], under setting [1], the “HBE2 Activity at 3 μM (%)” value was “+++ (+++ is >60+)”.
For `Cc1cccc(C)c1-c1cc2nc(n1)NS(=O)(=O)c1cccc(c1)C(=O)N(Cc1cncc(N3CCCCC34CCC4)n1)[C@H](CC(C)(C)C)CO2` [Compound 1626], the “HBE2 Activity at 3 μM (%)” value (3 μM, with 44 nM potentiator) is recorded as “+++ (+++ is >60+)”.
On the same count and under the same terms, to `Cc1cccc(C)c1-c1cc2nc(n1)NS(=O)(=O)c1cccc(c1)C(=O)N(Cc1cncc(N(C)CC3CCC3)n1)[C@H](CC(C)(C)C)CO2` [Compound 1614] belongs “+++ (+++ is >60+)”.
As to `Cc1cccc(C)c1-c1cc2nc(n1)NS(=O)(=O)c1cccc(c1)C(=O)N(Cc1cncc(N(C)C3CCC3)n1)[C@H](CC(C)(C)F)CO2` [Compound 1701], where the note is “with 44 nM potentiator”, the EC50 – broadly, the concentration at which the effect is half-maximal – was below 1000 nM and the Emax is above 60%.
Consider `Cc1cccc(C)c1-c1cc2nc(n1)NS(=O)(=O)c1cccc(c1)C(=O)N(Cc1ncc(OC(C)C)cn1)[C@H]([C@@H](C)C(C)C)CO2` (stereo in doubt) [Compound 1570], for which the “HBE2 Activity at 3 μM (%)” value (3 μM, with 44 nM potentiator) is on record as “+ (+ is <300))”.
As for `Cc1cccc(C)c1-c1cc2nc(n1)NS(=O)(=O)c1cccc(c1)C(=O)N(Cc1cncc(C(C)C)n1)[C@H](CCC(C)(C)C)CO2` [Compound 1842], the “HBE2 Activity at 3 μM (%)” value under setting [1] is given as “+++ (+++ is >60+)”.
Same read-out and setting: to `Cc1cccc(C)c1-c1cc2nc(n1)NS(=O)(=O)c1cccc(c1)C(=O)N(Cc1cncc(N3CC[C@@H]4CC[C@@H]43)n1)[C@H](CCC1CC1)CO2` [Compound 1922] belongs “+++ (+++ is >60+)”; to `Cc1cccc(C)c1-c1cc2nc(n1)NS(=O)(=O)c1cccc(c1)C(=O)N(Cc1cncc(N3CC[C@H]4CC[C@H]43)n1)[C@H](CCC(C)(C)C)CO2` (stereo in doubt) [Compound 1855], “+++ (+++ is >60+)”; to `Cc1cccc(C)c1-c1cc2nc(n1)NS(=O)(=O)c1cccc(c1)C(=O)N(Cc1cncc(N3CCCC[C@H]3C)n1)[C@H](CCC(C)C)CO2` [Compound 1749], “+++ (+++ is >60+)”.
Regarding `CCCCN(C)c1cncc(CN2C(=O)c3cccc(c3)S(=O)(=O)Nc3nc(cc(-c4c(C)cccc4C)n3)OC[C@H]2CC(C)(C)C)n1` [Compound 1698], the “HBE2 Activity at 3 μM (%)” value (3 μM, with 44 nM potentiator) is “+++ (+++ is >60+)”.
On the same count and under the same terms, to `CO[C@H](C)CN(C)c1cncc(CN2C(=O)c3cccc(c3)S(=O)(=O)Nc3nc(cc(-c4c(C)cccc4C)n3)OC[C@H]2CC(C)(C)C)n1` (stereo in doubt) [Compound 1634] belongs “+++ (+++ is >60+)”.
Turning to `Cc1cccc(C)c1-c1cc2nc(n1)NS(=O)(=O)c1cccc(c1)C(=O)N(Cc1nc(N(C)C3CCC3)cnc1C)[C@H](CC(C)(C)C)CO2` [Compound 1678], for the setting “3 μM, with 44 nM potentiator”, the “HBE2 Activity at 3 μM (%)” value is given as “+++ (+++ is >60+)”.
Regarding `Cc1cccc(C)c1-c1cc2nc(n1)NS(=O)(=O)c1cccc(c1)C(=O)N(Cc1cncc(N(C)C3CCCC3)n1)[C@H](COC(C)C)CO2` [Compound 1948], under setting [1], the “HBE2 Activity at 3 μM (%)” value is given as “+++ (+++ is >60+)”.
The same measure, in the same setting: to `Cc1cccc(C)c1-c1cc2nc(n1)NS(=O)(=O)c1cccc(c1)C(=O)N(Cc1cncc(N3CCC34CCC4)n1)[C@H](CCC(C)(C)C)CO2` [Compound 1837] belongs “+++ (+++ is >60+)”.
Consider `Cc1cccc(C)c1-c1cc2nc(n1)NS(=O)(=O)c1cccc(c1)C(=O)N(Cc1ncc(N3CCC(C)(C)CC3)cn1)[C@H](CCC1CC1)CO2` [Compound 1311, (11R)-11-(2-Cyclopropylethyl)-6-(2,6-dimethylphenyl)-12-[[5-(4,4-dimethyl-1-piperidyl)pyrimidin-2-yl]methyl]-2,2-dioxo-9-oxa-2^6-thia-3,5,12,19-tetrazatricyclo[12.3.1.14,8]nonadeca-1(18),4(19),5,7,14,16-hexaen-13-one], for which, for the setting “3 μM, with 44 nM potentiator”, the “HBE2 Activity at 3 μM (%)” value is recorded as “+++ (+++ is >60+)”.
Turning to `Cc1cccc(C)c1-c1cc2nc(n1)NS(=O)(=O)c1cccc(c1)C(=O)N(Cc1cccc(N(C)C(C)C)n1)[C@H](CC1(C)CCC1)CO2` [Compound 1762], the “HBE2 Activity at 3 μM (%)” value under setting [1] was “+++ (+++ is >60+)”.
Consider `Cc1cccc(C)c1-c1cc2nc(n1)NS(=O)(=O)c1cccc(c1)C(=O)N(Cc1cncc(N3CCCC[C@H]3C)n1)[C@H](COC1CC1)CO2` [Compound 1908], for which the “HBE2 Activity at 3 μM (%)” value under setting [1] was “+++ (+++ is >60+)”.
As for `Cc1cccc(C)c1-c1cc2nc(n1)NS(=O)(=O)c1cccc(c1)C(=O)N(Cc1cncc(N(C)CC(C)C)n1)[C@H](CC1CCC1)CO2` [Compound 1712], the “HBE2 Activity at 3 μM (%)” value under setting [1] was “+++ (+++ is >60+)”. The EC50 under setting [2] is below 1000 nM. Further, the Emax (with 44 nM potentiator) was above 60%.
`Cc1cccc(C)c1-c1cc2nc(n1)NS(=O)(=O)c1cccc(c1)C(=O)N(Cc1cncc(N(C)[C@H]3C[C@@H](C)C3)n1)[C@H](CCC(C)(C)C)CO2` [Compound 1884]: the “HBE2 Activity at 3 μM (%)” value under setting [1] is reported as “+++ (+++ is >60+)”.
Regarding `Cc1cccc(C)c1-c1cc2nc(n1)NS(=O)(=O)c1cccc(c1)C(=O)N(Cc1cncc(N3CC(C)(C)[C@H]3C(C)C)n1)[C@H](CC(C)(C)C)CO2` (stereo in doubt) [Compound 1751], the “HBE2 Activity at 3 μM (%)” value under setting [1] was “+++ (+++ is >60+)”.
Still for that read-out and setting: to `Cc1cccc(C)c1-c1cc2nc(n1)NS(=O)(=O)c1cccc(c1)C(=O)N(Cc1cncc(N3CC(F)(F)[C@H]3C)n1)[C@H](CC(C)(C)C)CO2` [Compound 1769] belongs “+++ (+++ is >60+)”.
Still for that read-out and setting: to `Cc1cccc(C)c1-c1cc2nc(n1)NS(=O)(=O)c1cccc(c1)C(=O)N(Cc1cncc(N(C)CC3(C)CC3)n1)[C@H](CC(C)(C)C)CO2` [Compound 1757] belongs “+++ (+++ is >60+)”; to `CCN(c1cncc(CN2C(=O)c3cccc(c3)S(=O)(=O)Nc3nc(cc(-c4c(C)cccc4C)n3)OC[C@H]2CCC(C)(C)C)n1)C1CCC1` [Compound 1808], “+++ (+++ is >60+)”.
`Cc1cccc(C)c1-c1cc2nc(n1)NS(=O)(=O)c1cccc(c1)C(=O)N(Cc1cncc(N(C)CC(C)(C)C)n1)[C@H](CCC1CC1)CO2` [Compound 1719]: the “HBE2 Activity at 3 μM (%)” value under setting [1] was “+++ (+++ is >60+)”. Further, the EC50 under setting [2] was below 1000 nM. The Emax (with 44 nM potentiator) was above 60%.
Consider `Cc1cccc(C)c1-c1cc2nc(n1)NS(=O)(=O)c1cccc(n1)C(=O)N(Cc1cncc(N(C)C3CCC3)c1)[C@H](CC(C)(C)C)CO2` [Compound 1924], for which the “HBE2 Activity at 3 μM (%)” value under setting [1] is “+++ (+++ is >60+)”.
Consider `CCN(c1cccc(CN2C(=O)c3cccc(c3)S(=O)(=O)Nc3nc(cc(-c4c(C)cccc4C)n3)OC[C@H]2CC(C)(C)C)n1)C1CCC1` [Compound 1587], for which, under “3 μM, with 44 nM potentiator”, the “HBE2 Activity at 3 μM (%)” value is reported as “+++ (+++ is >60+)”. Moreover, for the setting “with 44 nM potentiator”, the EC50 was below 1000 nM and the Emax was above 60%.
Consider `Cc1cccc(C)c1-c1cc2nc(n1)NS(=O)(=O)c1cccc(c1)C(=O)N(Cc1cncc(N(C)CCO)n1)[C@H](CC(C)(C)C)CO2` [Compound 1665], for which, where the note is “3 μM, with 44 nM potentiator”, the “HBE2 Activity at 3 μM (%)” value is “+++ (+++ is >60+)”.
On the same count and under the same terms, to `CO[C@H](C)CN(C)c1cncc(CN2C(=O)c3cccc(c3)S(=O)(=O)Nc3nc(cc(-c4c(C)cccc4C)n3)OC[C@H]2CC(C)(C)C)n1` [Compound 1633] belongs “+++ (+++ is >60+)”.
On to `Cc1cccc(C)c1-c1cc2nc(n1)NS(=O)(=O)c1cccc(c1)C(=O)N(Cc1cncc(N(C)C3CCC3)n1)[C@@H]1CN(CCC(C)(C)C)C[C@H]1O2` [Compound 1741], for which the “HBE2 Activity at 3 μM (%)” value under setting [1] is reported as “++ (++ is 30-60%)”.
On to `Cc1cccc(C)c1-c1cc2nc(n1)NS(=O)(=O)c1cccc(c1)C(=O)N(Cc1cncc(N(C)CC(C)C)n1)[C@H](CC1CC1)CO2` [Compound 1710], for which the “HBE2 Activity at 3 μM (%)” value (3 μM, with 44 nM potentiator) is listed as “+++ (+++ is >60+)”. In addition, where the note is “with 44 nM potentiator”, the EC50 was below 1000 nM and the Emax was above 60%.
Consider `Cc1cccc(C)c1-c1cc2nc(n1)NS(=O)(=O)c1cccc(c1)C(=O)N(Cc1cncc(N3CC[C@H]3C)n1)[C@H](CCC(C)(C)C)CO2` [Compound 1726], for which the “HBE2 Activity at 3 μM (%)” value under setting [1] is recorded as “+++ (+++ is >60+)”. The EC50 under setting [2] was below 1000 nM. Also, under “with 44 nM potentiator”, the Emax was above 60%.
With `CNC(=O)CC1CCCN1c1cncc(CN2C(=O)c3cccc(c3)S(=O)(=O)Nc3nc(cc(-c4c(C)cccc4C)n3)OC[C@H]2CC(C)(C)C)n1` (some centres unmarked) [Compound 1657], the “HBE2 Activity at 3 μM (%)” value (3 μM, with 44 nM potentiator) was “+++ (+++ is >60+)”.
Take `Cc1cccc(C)c1-c1cc2nc(n1)NS(=O)(=O)c1cccc(c1)C(=O)N(Cc1cncc(N3CCC[C@H]3C)n1)[C@H](CC1(C)CCC1)CO2` [Compound 1743]: the “HBE2 Activity at 3 μM (%)” value under setting [1] is “+++ (+++ is >60+)”.
Still for that read-out and setting: in the case of `Cc1cccc(C)c1-c1cc2nc(n1)NS(=O)(=O)c1cccc(c1)C(=O)N(Cc1cnc(C)c(N(C)CC(C)C)n1)[C@H](CC(C)(C)C)CO2` [Compound 1322, (11R)-6-(2,6-Dimethylphenyl)-11-(2,2-dimethylpropyl)-12-[[6-[isobutyl(methyl)amino]-5-methyl-pyrazin-2-yl]methyl]-2,2-dioxo-9-oxa-2λ^6-thia-3,5,12,19-tetrazatricyclo[12.3.1.14,8]nonadeca-1(18),4(19),5,7,14,16-hexaen-13-one] it was “+++ (+++ is >60+)”; in that of `Cc1cccc(C)c1-c1cc2nc(n1)NS(=O)(=O)c1cccc(c1)C(=O)N(Cc1cncc(N3CCCC[C@@H]3C)n1)[C@H](C1CC(C)(C)C1)CO2` (stereo in doubt) [Compound 1897], “+ (+ is <300))”; in that of `COC[C@H]1CCCCN1c1cncc(CN2C(=O)c3cccc(c3)S(=O)(=O)Nc3nc(cc(-c4c(C)cccc4C)n3)OC[C@H]2CCC(C)(C)C)n1` (stereo in doubt) [Compound 1856], “+++ (+++ is >60+)”.

Values taken from patent US20240150377A1, “MODULATORS OF CYSTIC FIBROSIS TRANSMEMBRANE CONDUCTANCE REGULATOR” (VERTEX PHARMACEUTICALS INCORPORATED, priority 2020, published 2024).
